Drawing on patent publication US10370366B2 (Flatley Discovery Lab, LLC, priority 2013, dated 2019), this text covers Emax and EC50 for 23 compounds.

The assay has as its target T1, human F508del CFTR (Homo sapiens, UniProt P13569, DEL508-508).
T1 construct: expressed in transfected cells; host or cells: Fisher Rat Thyroid (FRT) cells
In words: CFTR-YFP High Throughput Assay. Type of assay: cell-based. The conditions noted are these: FRT cells expressing human F508del CFTR and YFP; for Emax: EMax normalized to the positive control, read-out: % Efficacy. As to the method: Assays for Detecting and Measuring the Effect of Compounds on F508del-CFTR Channels CFTR-YFP High Throughput Assay-CFTR Corrector Protocol:
This protocol is designed to selectively screen small molecule compounds for F508del CFTR corrector activities in the HTS YFP (yellow fluorescent protein) flux assay. In this protocol, the cells are incubated with testing compounds for 24 hours, washed with PBS, stimulated with forskolin and a standard potentiator, and fluorescence in each plate well is measured kinetically read on a 384-well HTS plate reader, such as the Hamamatsu FDSS-6000.
YFP fluorescence intensity values are acquired at high speed before and after iodide buffer is injected to the assay cells. Iodide enters the cells via active CFTR channels in the plasma membrane, and quenches the YFP fluorescence. The rate of fluorescence quenching is proportionate to the total CFTR activity in the cell membrane. F508del CFTR correctors increase the number of CFTR molecules in the testing cell plasma membrane, and thereby accelerate YFP quenching.
This method was initially developed for bench top plate readers (Galietta et al., 2001), and was adapted to the HTS format (Sui et al. Assay Drug Dev. Technol. 2010).
Fisher Rat Thyroid (FRT) cells stably expressing both human F508del CFTR and a halide-sensitive yellow fluorescent protein (YFP-H148Q/I152L 25,22) (Galietta et al. Am. J. Physiol Cell Physiol 281(5), C1734, 2001) were cultured on plastic surface in Coon's modified Ham's F12 medium supplemented with FBS 10%, L-glutamine 2 mM, penicillin 100 U/ml, and streptomycin 100 µg/ml. G418 (0.75-1.0 mg/ml) and zeocin (3.2 ug/ml) were used for selection of FRT cells expressing F508del CFTR and YFP. For primary screening, FRT cells were plated into 384-well black wall, transparent bottom microtiter plates (Costar; Corning Inc.) at a cell density of 20,000-40,000 per well. Test compound was applied to the cells at varying concentrations ranging from 2 nM-40 μM in either a 2-fold or 3-fold dilution series. Cells were incubated in a cell culture incubator at 37° C. with 5% CO2 for 24-26 h. Assay plates were washed with DPBS media (Thermo, cat# SH30028.02) to remove unbound cells and compound. Stimulation media (25 μL) containing 20 μM Forskolin & 30 μM P3 [6-(Ethyl-phenyl-sulfonyl)-4-oxo-1,4-dihydro-quinoline-3-carboxylic acid 2-methoxy-benzylamide] in Hams F-12 coon's modified media was added to the plate wells and incubated at room temperature for 60-120 min. […] (10 mM HEPES, 1 mM MgCl2, 3 mM KCl, 1 mM CaCl2, 150 mM NaI) was then added and fluorescence quench curves (Excitation 500 nm/Emission 540 nm; exposure 136 ms) were immediately recorded on an FDSS-6000 plate reader (Hamamatsu). Quench rates were derived from least squares fitting of the data as described by Sui et al (2010).
CFTR-YFP High Throughput Assay-CFTR Potentiator Protocol:
This protocol is designed to selectively screen small molecule compounds for F508del CFTR potentiator activities in the HTS YFP flux assay. Such compounds act acutely to stimulate CFTR already expressed on the membrane surface. In this protocol, the cells are incubated at 27° C. for 24 hours to homogeneously boost F508del CFTR expression in the cell membrane (low temperature correction), washed with PBS, treated with test compound, and CFTR activity is stimulated with forskolin for 1-2 hr. Measurement of ion flux is initiated by addition of iodide-containing buffer, and YFP quenching is kinetically recorded using a 384-well HTS plate reader, such as the Hamamatsu FDSS-6000.
YFP fluorescence intensity values are acquired at high speed over a 1 min time course before and after iodide buffer is injected to the assay cells. Iodide enters the cells via active CFTR channels in the plasma membrane, and quenches the YFP fluorescence. The rate of fluorescence quenching is proportionate to total CFTR activity in the cell membrane. […]

Some results are limits rather than exact numbers.

T1 sequence (P13569 with tags, fused parts or gaps DEL508-508): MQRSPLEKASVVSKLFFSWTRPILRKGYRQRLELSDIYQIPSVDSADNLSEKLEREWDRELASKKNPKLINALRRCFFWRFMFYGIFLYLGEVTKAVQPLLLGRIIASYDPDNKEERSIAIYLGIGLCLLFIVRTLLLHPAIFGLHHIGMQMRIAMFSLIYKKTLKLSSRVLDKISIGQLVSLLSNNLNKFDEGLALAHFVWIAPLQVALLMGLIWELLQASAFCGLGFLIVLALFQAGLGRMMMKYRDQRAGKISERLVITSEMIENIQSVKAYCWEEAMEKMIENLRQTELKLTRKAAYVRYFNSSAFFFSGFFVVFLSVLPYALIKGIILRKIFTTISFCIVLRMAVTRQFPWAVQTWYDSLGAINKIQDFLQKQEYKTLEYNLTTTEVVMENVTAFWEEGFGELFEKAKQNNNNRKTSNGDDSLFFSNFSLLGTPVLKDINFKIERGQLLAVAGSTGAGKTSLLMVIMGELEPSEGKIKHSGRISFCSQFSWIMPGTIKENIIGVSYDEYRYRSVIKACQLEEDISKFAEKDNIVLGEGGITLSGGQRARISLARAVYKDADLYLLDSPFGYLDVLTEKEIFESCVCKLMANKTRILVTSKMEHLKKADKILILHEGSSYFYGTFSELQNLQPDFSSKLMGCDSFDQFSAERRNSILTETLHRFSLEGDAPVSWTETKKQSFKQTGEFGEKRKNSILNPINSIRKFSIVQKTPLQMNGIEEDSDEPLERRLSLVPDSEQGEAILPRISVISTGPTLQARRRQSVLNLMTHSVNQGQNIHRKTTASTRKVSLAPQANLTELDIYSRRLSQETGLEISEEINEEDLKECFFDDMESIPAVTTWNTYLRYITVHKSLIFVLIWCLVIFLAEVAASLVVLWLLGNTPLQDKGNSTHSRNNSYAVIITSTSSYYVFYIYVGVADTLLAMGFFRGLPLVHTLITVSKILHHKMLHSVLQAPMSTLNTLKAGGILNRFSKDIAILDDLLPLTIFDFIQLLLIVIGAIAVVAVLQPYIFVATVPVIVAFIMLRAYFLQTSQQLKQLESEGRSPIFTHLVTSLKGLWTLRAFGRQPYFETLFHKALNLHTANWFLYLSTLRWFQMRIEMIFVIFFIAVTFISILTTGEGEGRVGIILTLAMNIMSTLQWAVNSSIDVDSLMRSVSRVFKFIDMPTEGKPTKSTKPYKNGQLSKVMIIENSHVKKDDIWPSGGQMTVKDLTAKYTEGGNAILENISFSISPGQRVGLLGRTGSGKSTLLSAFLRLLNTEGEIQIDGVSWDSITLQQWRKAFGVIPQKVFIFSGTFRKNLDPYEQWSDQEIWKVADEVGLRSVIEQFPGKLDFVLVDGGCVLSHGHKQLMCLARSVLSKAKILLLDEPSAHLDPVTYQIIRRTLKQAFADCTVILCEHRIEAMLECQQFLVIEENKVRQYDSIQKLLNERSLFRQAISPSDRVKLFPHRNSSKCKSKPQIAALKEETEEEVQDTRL

On to `CCc1ccc(N(CC)C(=O)Cn2nc(-c3ccccc3)c3ccccc3c2=O)cc1` [Example 1, N-ethyl-N-(4-ethylphenyl)-2-(1-oxo-4-phenylphthalazin-2(1H)-yl)acetamide], for which the Emax lay in the range of 10 to 30%. For `CCc1ccc(N(CC)C(=O)Cn2nc(-c3ccc(O)cc3)c3ccccc3c2=O)cc1` [Example 2, N-ethyl-N-(4-ethylphenyl)-2-(4-(4-hydroxyphenyl)-1-oxophthalazin-2(1H)-yl)acetamide], the Emax is 10 to 30%. Still for that read-out and setting: next, `CCc1ccc(N(CC)C(=O)Cn2nc(-c3cccnc3)c3ccccc3c2=O)cc1` [Example 3, N-ethyl-N-(4-ethylphenyl)-2-(1-oxo-4-(pyridin-3-yl)phthalazin-2(1H)-yl)acetamide]: 30 to 80%; `CCc1ccc(N(CC)C(=O)Cn2nc(-c3ccncc3)c3ccccc3c2=O)cc1` [Example 4, N-ethyl-N-(4-ethylphenyl)-2-(1-oxo-4-(pyridin-4-yl)phthalazin-2(1H)-yl)acetamide]: 30 to 80%.

Consider `CCc1ccc(N(CC)C(=O)Cn2nc(-c3cccc4ncccc34)c3ccccc3c2=O)cc1` [Example 5, N-ethyl-N-(4-ethylphenyl)-2-(1-oxo-4-(quinolin-5-yl)phthalazin-2(1H)-yl)acetamide], for which the Emax lay within 30 to 80%. For the compound `CCc1ccc(N(CC)C(=O)Cn2nc(-c3cccc4cnccc34)c3ccccc3c2=O)cc1` [Example 6, N-ethyl-N-(4-ethylphenyl)-2-(4-(isoquinolin-5-yl)-1-oxophthalazin-2(1H)-yl)acetamide], the Emax was in the range of 30 to 80%.

Regarding `CCc1ccc(N(CC)C(=O)Cn2nc(-c3cncnc3)c3ccccc3c2=O)cc1` [Example 7, N-ethyl-N-(4-ethylphenyl)-2-(1-oxo-4-(pyrimidin-5-yl)phthalazin-2(1H)-yl)acetamide], the Emax lay in the range of 30 to 80% and the 50% effective concentration (EC50) (in general, the concentration needed to bring the measured effect to its halfway point) is > 20 µM.

Regarding `CCc1ccc(N(CC)C(=O)Cn2nc(-c3cccc(N)c3)c3ccccc3c2=O)cc1` [Example 8, 2-(4-(3-aminophenyl)-1-oxophthalazin-2(1H)-yl)-N-ethyl-N-(4-ethylphenyl)acetamide], the Emax is 30 to 80% and the concentration for a half-maximal effect (EC50) was < 10 µM.

With `CCc1ccc(N(CC)C(=O)Cn2nc(-c3cccc(O)c3)c3ccccc3c2=O)cc1` [Example 9, N-ethyl-N-(4-ethylphenyl)-2-(4-(3-hydroxyphenyl)-1-oxophthalazin-2(1H)-yl)acetamide], the Emax fell in the range of 10 to 30% and the half-maximal effective concentration (EC50) was < 10 µM. For `CCc1ccc(N(CC)C(=O)Cn2nc(-c3cccc4c3OCO4)c3ccccc3c2=O)cc1` [Example 10, 2-(4-(benzo[d][1,3]dioxol-4-yl)-1-oxophthalazin-2(1H)-yl)-N-ethyl-N-(4-ethylphenyl)acetamide], in that order: 10 to 30% and > 20 µM. For `CCc1ccc(N(CC)C(=O)Cn2nc(-c3cccc(C(N)=O)c3)c3ccccc3c2=O)cc1` [Example 11, 3-(3-(2-(ethyl(4-ethylphenyl)amino)-2-oxoethyl)-4-oxo-3,4-dihydrophthalazin-1-yl)benzamide], in that order: 30 to 80% and 10 to 20 µM. Turning to `CCc1ccc(N(CC)C(=O)Cn2nc(-c3ccc(C(N)=O)cc3)c3ccccc3c2=O)cc1` [Example 12, 4-(3-(2-(ethyl(4-ethylphenyl)amino)-2-oxoethyl)-4-oxo-3,4-dihydrophthalazin-1-yl)benzamide], the Emax was in the range of 30 to 80% and the EC50 is > 20 µM. For `CCc1ccc(N(CC)C(=O)Cn2nc(-c3ccc(S(N)(=O)=O)cc3)c3ccccc3c2=O)cc1` [Example 13, N-ethyl-N-(4-ethylphenyl)-2-(1-oxo-4-(4-sulfamoylphenyl)phthalazin-2(1H)-yl)acetamide] the same measures were 30 to 80% and 10 to 20 µM. For `CCc1ccc(N(CC)C(=O)Cn2nc(-c3ccc(C(=O)O)cc3)c3ccccc3c2=O)cc1` [Example 14, 4-(3-(2-(ethyl(4-ethylphenyl)amino)-2-oxoethyl)-4-oxo-3,4-dihydrophthalazin-1-yl)benzoic acid], in that order: 30 to 80% and > 20 µM. Consider `CCc1ccc(N(CC)C(=O)Cn2nc(-c3ccc(C(=O)OC)cc3)c3ccccc3c2=O)cc1` [Example 15, methyl 4-(3-(2-(ethyl(4-ethylphenyl)amino)-2-oxoethyl)-4-oxo-3,4-dihydrophthalazin-1-yl)benzoate], for which the Emax lay in the range of 10 to 30% and the EC50 was > 20 µM.

On to `CCc1ccc(N(CC)C(=O)Cn2nc(-c3ccc(S(C)(=O)=O)cc3)c3ccccc3c2=O)cc1` [Example 16, N-ethyl-N-(4-ethylphenyl)-2-(4-(4-(methylsulfanoyl)phenyl)-1-oxophthalazin-2(1H)-yl)acetamide], for which the Emax lay within 30 to 80% and the EC50 is < 10 µM. For `CCc1ccc(N(CC)C(=O)Cn2nc(-c3cccc(C#N)c3)c3ccccc3c2=O)cc1` [Example 17, 2-(4-(3-cyanophenyl)-1-oxophthalazin-2(1H)-yl)-N-ethyl-N-(4-ethylphenyl)acetamide], in that order: 30 to 80% and < 10 µM. With `CCN(C(=O)Cn1nc(-c2ccc(S(N)(=O)=O)cc2)c2ccccc2c1=O)c1ccc2c(c1)OC(F)(F)O2` [Example 18, N-(2,2-difluorobenzo[d][1, 3]dioxol-5-yl)-N-ethyl-2-(1-oxo-4-(4-sulfamoylphenyl)phthalazin-2(1H)-yl)acetamide], the Emax is > 80% and the EC50 fell in the range of 10 to 20 µM. For `CCN(C(=O)Cn1nc(-c2ccc(C(N)=O)cc2)c2ccccc2c1=O)c1ccc2c(c1)OC(F)(F)O2` [Example 19, 4-(3-(2-((2,2-difluorobenzo[d][1,3]dioxol-5-yl)(ethyl)amino)-2-oxoethyl)-4-oxo-3,4-dihydrophthalazin-1-yl)benzamide], in that order: > 80% and 10 to 20 µM. For `CCN(C(=O)Cn1nc(-c2ccc(C(=O)O)cc2)c2ccccc2c1=O)c1ccc2c(c1)OC(F)(F)O2` [Example 20, 4-(3-(2-((2,2-difluorobenzo[d][1,3]dioxol-5-yl)(ethyl)amino)-2-oxoethyl)-4-oxo-3,4-dihydrophthalazin-1-yl)benzoic acid] the same measures were 30 to 80% and > 20 µM.

For the compound `CCN(C(=O)Cn1nc(-c2cccc(C#N)c2)c2ccccc2c1=O)c1ccc2c(c1)OC(F)(F)O2` [Example 21, 2-(4-(3-cyanophenyl)-1-oxophthalazin-2(1H)-yl)-N-(2,2-difluorobenzo[d][1,3]dioxol-5-yl)-N-ethylacetamide], the Emax is > 80% and the EC50 is < 10 µM. As to `CCN(C(=O)Cn1nc(-c2cccc(F)c2)c2ccccc2c1=O)c1ccc2c(c1)OC(F)(F)O2` [Example 23, N-(2,2-difluorobenzo[d][1, 3]dioxol-5-yl)-N-ethyl-2-(4-(3-fluorophenyl)-1-oxophthalazin-2(1H)-yl)acetamide], the Emax was > 80% and the EC50 is < 10 µM.

For `CCN(C(=O)Cn1nc(-c2cccnc2)c2ccccc2c1=O)c1ccc2c(c1)OC(F)(F)O2` [Example 24, N-(2,2-difluorobenzo[d][1, 3]dioxol-5-yl)-N-ethyl-2-(1-oxo-4-(pyridin-3-yl)phthalazin-2(1H)-yl)acetamide], the Emax lay within 30 to 80% and the concentration for a half-maximal effect (EC50) was < 10 µM.
